{"source": "patent US20250257098A1", "about": "“NOVEL SST4 SELECTIVE AGONISTS AS NON-OPIOID ANALGESICS” (KØBENHAVNS UNIVERSITET, priority 2022, published 2025)", "key": {"[1]": {"system": "mouse model of post-surgical pain", "parameters": "species or system mice", "conditions": "in vivo"}, "[2]": {"molecular_target": "T1, human somatostatin receptor SST4 (Homo sapiens, UniProt P31391)", "T1 construct": "expressed in transfected cells; host or cells: HTLA cells", "T1 sequence (P31391 whole entry)": "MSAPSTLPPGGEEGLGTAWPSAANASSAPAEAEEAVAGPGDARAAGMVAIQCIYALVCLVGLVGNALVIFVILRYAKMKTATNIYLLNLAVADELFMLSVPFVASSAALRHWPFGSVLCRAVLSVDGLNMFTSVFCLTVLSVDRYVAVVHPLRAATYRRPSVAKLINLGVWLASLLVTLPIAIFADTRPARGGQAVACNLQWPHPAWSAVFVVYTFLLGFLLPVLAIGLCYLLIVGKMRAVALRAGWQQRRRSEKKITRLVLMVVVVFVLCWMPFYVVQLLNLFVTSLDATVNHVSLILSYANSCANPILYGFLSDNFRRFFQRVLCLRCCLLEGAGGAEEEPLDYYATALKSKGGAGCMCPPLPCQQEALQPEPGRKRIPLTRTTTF", "format": "cell-based"}, "[3]": {"molecular_target": "T2, human somatostatin receptor SST3 (Homo sapiens, UniProt P32745)", "T2 construct": "expressed in transfected cells; host or cells: HTLA cells", "T2 sequence (P32745 whole entry)": "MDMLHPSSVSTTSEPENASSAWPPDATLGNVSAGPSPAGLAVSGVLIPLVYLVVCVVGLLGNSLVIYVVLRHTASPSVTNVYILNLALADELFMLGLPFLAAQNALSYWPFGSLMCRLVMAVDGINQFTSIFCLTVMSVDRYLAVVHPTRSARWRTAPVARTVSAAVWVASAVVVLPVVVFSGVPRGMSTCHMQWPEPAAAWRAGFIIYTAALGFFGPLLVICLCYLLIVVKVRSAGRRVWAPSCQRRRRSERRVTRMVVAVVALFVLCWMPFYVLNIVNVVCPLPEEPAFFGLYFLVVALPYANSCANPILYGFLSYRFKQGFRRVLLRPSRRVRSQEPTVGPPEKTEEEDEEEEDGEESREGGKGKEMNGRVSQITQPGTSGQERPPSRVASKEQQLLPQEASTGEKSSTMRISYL", "format": "cell-based"}, "[4]": {"molecular_target": "T3, human somatostatin receptor SST2 (Homo sapiens, UniProt P30874)", "T3 construct": "expressed in transfected cells; host or cells: HTLA cells", "T3 sequence (P30874 whole entry)": "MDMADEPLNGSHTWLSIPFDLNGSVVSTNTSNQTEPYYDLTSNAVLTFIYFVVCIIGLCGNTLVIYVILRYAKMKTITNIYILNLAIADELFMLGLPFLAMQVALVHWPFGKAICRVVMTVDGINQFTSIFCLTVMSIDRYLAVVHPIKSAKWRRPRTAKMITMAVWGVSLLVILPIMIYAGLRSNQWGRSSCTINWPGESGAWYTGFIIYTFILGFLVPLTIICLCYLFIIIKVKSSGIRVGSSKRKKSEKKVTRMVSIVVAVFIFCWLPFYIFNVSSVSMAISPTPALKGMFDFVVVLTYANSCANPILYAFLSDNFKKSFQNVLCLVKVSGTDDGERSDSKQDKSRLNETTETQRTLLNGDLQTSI", "format": "cell-based"}, "[5]": {"molecular_target": "T4, human somatostatin receptor SST5 (Homo sapiens, UniProt P35346)", "T4 construct": "expressed in transfected cells; host or cells: HTLA cells", "T4 sequence (P35346 whole entry)": "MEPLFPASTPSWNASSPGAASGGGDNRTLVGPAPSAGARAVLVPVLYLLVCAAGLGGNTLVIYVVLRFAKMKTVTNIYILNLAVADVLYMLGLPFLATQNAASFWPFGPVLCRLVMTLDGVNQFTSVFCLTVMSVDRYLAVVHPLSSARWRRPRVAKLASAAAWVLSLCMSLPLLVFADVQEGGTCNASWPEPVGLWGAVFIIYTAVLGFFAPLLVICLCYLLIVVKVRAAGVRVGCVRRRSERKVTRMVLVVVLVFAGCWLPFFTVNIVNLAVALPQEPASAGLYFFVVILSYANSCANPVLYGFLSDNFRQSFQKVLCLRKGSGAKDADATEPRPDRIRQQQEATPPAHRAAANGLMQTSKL", "format": "cell-based"}, "[6]": {"molecular_target": "T5, human somatostatin receptor SST1 (Homo sapiens, UniProt P30872)", "T5 construct": "expressed in transfected cells; host or cells: HTLA cells", "T5 sequence (P30872 whole entry)": "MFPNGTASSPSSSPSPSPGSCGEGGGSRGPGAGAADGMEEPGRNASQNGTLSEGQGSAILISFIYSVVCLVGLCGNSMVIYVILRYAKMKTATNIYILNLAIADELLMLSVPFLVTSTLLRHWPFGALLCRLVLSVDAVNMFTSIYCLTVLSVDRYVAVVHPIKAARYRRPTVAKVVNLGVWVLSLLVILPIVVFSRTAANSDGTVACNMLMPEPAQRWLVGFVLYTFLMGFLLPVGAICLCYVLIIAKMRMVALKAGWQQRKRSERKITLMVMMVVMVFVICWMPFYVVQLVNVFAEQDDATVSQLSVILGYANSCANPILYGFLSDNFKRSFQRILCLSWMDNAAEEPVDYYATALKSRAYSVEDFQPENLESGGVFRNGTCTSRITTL", "format": "cell-based"}, "[7]": {"system": "LPS-stimulated mouse macrophages", "format": "cell-based, BALB/c mice"}, "[8]": {"system": "model of chronic neuropathic pain (spared nerve injury, SNI)", "parameters": "species or system C57BL/6NRj mice", "conditions": "mouse, in vivo"}}}
{"sequence": "PVCWKFGCPL [HSH-109, PVCwKFGCOL]", "values": [{"measurement": "area under the curve larger than for Cont-Ro1", "setting": "[1]", "value": 39, "unit": "%"}, {"measurement": "duration of effect compared with Cont-Ro1", "setting": "[1]", "value": "longer lasting"}, {"measurement": "duration of effect versus morphine positive control", "setting": "[1]", "value": "longer lasting than the morphine positive control"}, {"measurement": "effect level compared with Cont-Ro1", "setting": "[1]", "value": "tendency for a higher effect level of HSH-109 over Cont-Ro1"}, {"measurement": "expected efficacy", "setting": "[1]", "value": "expected to be fully efficacious"}, {"measurement": "reduction of hypersensitivity", "setting": "[1]", "value": "robust reduction of hypersensitivity"}, {"measurement": "apparent potency at SST4", "setting": "[2]", "value": "low nanomolar range"}, {"measurement": "potency compared with Cont-Ro1", "setting": "[2]", "value": "more potent"}, {"measurement": "selectivity for SST4 compared with Cont-Ro1", "setting": "[2]", "value": "more selective for SST4 than Cont-Ro1"}, {"measurement": "activation of SST3", "setting": "[3]", "value": "did not significantly activate"}, {"measurement": "activation of SST2", "setting": "[4]", "value": "did not significantly activate"}, {"measurement": "activation of SST5", "setting": "[5]", "value": "did not significantly activate"}, {"measurement": "apparent potency at SST1", "setting": "[6]", "value": "low micromolar range"}, {"measurement": "reduction of MCP1 levels", "setting": "[7]", "value": "~47", "unit": "%"}, {"measurement": "reduction of TNFα levels", "setting": "[7]", "value": "~62", "unit": "%"}, {"measurement": "reduction of mechanical hypersensitivity", "setting": "[8]", "value": "very robust reduction of mechanical hypersensitivity"}]}
